In patent US7723332B2, “Aryl sulfonamides useful for modulation of the progesterone receptor” (Wyeth LLC, priority 2007, dated 2010):

Test system: alkaline phosphatase activity in T47D cells
Test: Effects of progestins and antiprogestins on alkaline phosphatase activity in T47D cells
Type: cell-based
Protocol: Effects of Progestins and Antiprogestins on Alkaline Phosphatase Activity in T47D Cells
This example was performed to identify progestins or antiprogestins by determining a compound's effect on alkaline phosphatase activity in T47D cells.
Culture medium: DMEM:F12 (1:1) (GIBCO, BRL) supplemented with 5% (v/v) charcoal stripped fetal bovine serum (not heat-inactivated), 100 U/mL penicillin, 100 μg/mL streptomycin, and 2 mM the GlutaMax™ reagent (GIBCO, BRL).
Alkaline phosphatase assay buffer: • I. 0.1M Tris-HCl, pH 9.8, containing 0.2% the Triton® X-100 reagent • II. 0.1 M Tris-HCl, pH 9.8, containing 4 mM p-nitrophenyl phosphate (Sigma).
Frozen T47D cells were thawed in a 37° C. water bath and diluted to 280,000 cells/mL in culture medium. To each well in a 96-well plate (Falcon, Becton Dickinson Labware), 180 μL of diluted cell suspension was added. Twenty μL of reference or test compounds diluted in the culture medium was then added to each well. When testing for progestin antagonist activity, reference antiprogestins or test compounds were added in the presence of 1 nM progesterone. The cells were incubated at 37° C. in a 5% CO2/humidified atmosphere for 24 hours. NOTE: For high throughput screening, one concentration of each compound was tested at 0.3 μg/mL. Based on an average molecular weight of 300 g/mol for the compounds in the library, the concentration was approximately 1 μM. Subsequently, active compounds were tested in dose response assays to determine EC50 and IC50.
At the end of treatment, the medium was removed from the plate. Fifty μL of assay buffer I was added to each well. The plates were shaken in a titer plate shaker for 15 minutes. 150 μL of assay buffer II was then added to each well. Optical density measurements were taken at 5 minute intervals for 30 minutes at a test wavelength of 405 nm.
For reference and test compounds, a dose response curve was generated for dose (X-axis) vs. the rate of enzyme reaction (slope) (Y-axis). Square root-transformed data was used for analysis of variance and nonlinear dose response curve fitting for both agonist and antagonist modes. Huber weighting was used to down-weight the effects of outliners. EC50 or IC50 values were calculated from the retransformed values. JMP software (SAS Institute, Inc.) was used for both one-way analysis of variance and non-4 linear dose response analysis in both single dose and dose response studies.
Progesterone and trimegestone are reference progestins known in the art and typically show an EC50 of about 0.1 nM to about 2.0 nM.

[1] = Homo sapiens, T47D alkaline phosphatase assay, antagonist mode in the presence of 1 nM progesterone, 24 hours

Row | Compound | IC50 [1] [nM] | other results
1 | CC(=O)[C@H]1CC[C@H]2[C@@H]3CCC4=CC(=O)CC[C@]4(C)[C@H]3CC[C@]12C [Progesterone] | – | EC50 (Homo sapiens, T47D, reference progestins, agonist mode, typical values): 0.1 to 2 nM
2 | CN(C)S(=O)(=O)c1ccc(-c2ccc(C#N)n2C)cc1 [Example 2, 4-(5-cyano-1-methyl-1H-pyrrol-2-yl)-N,N-dimethylbenzenesulfonamide] | 81.3 | –
3 | Cn1c(C#N)ccc1-c1ccc(S(=O)(=O)NC2CCCCC2)cc1 [Example 15, 4-(5-cyano-1-methyl-1H-pyrrol-2-yl)-N-cyclohexylbenzenesulfonamide] | 58.9 | –
4 | Cn1c(C#N)ccc1-c1ccc(S(N)(=O)=O)c(C(F)(F)F)c1 [Example 19, 4-(5-cyano-1-methyl-1H-pyrrol-2-yl)-2-(trifluoromethyl)benzenesulfonamide] | 35.8 | –
5 | CC#C[C@]1(O)CC[C@H]2[C@@H]3CCC4=CC(=O)CCC4=C3[C@@H](c3ccc(N(C)C)cc3)C[C@@]21C [RU486, reference compound] | – | IC50 (Homo sapiens, T47D, 24 h, reference antiprogestin, in the presence of 1 nM progesterone, typical value): 0.1 to 2 nM
6 | Cn1c(C#N)ccc1-c1ccc(S(=O)(=O)NC2CC2)c(C(F)(F)F)c1 [Example 27, 4-(5-cyano-1-methyl-1H-pyrrol-2-yl)-N-cyclopropyl-2-(trifluoromethyl)benzenesulfonamide] | 38.2 | –
7 | Cn1c(C#N)ccc1-c1ccc(S(=O)(=O)NC(C)(C)C)c(OC(F)(F)F)c1 [Example 57, N-tert-butyl-4-(5-cyano-1-methyl-1H-pyrrol-2-yl)-2-(trifluoromethoxy)benzenesulfonamide] | – | Active Dose (T47D alkaline phosphatase assay, antagonist mode in the presence of 1 nM progesterone, 24 hours): 30 nM
8 | CCNS(=O)(=O)c1ccc(-c2ccc(C#N)n2C)cc1 [Example 3, 4-(5-cyano-1-methyl-1H-pyrrol-2-yl)-N-ethylbenzenesulfonamide] | 11.4 | –
9 | Cn1c(C#N)ccc1-c1ccc(S(=O)(=O)NCC2CC2)cc1 [Example 17, 4-(5-cyano-1-methyl-1H-pyrrol-2-yl)-N-(cyclopropylmethyl)benzenesulfonamide] | 27.6 | –
10 | Cn1c(C#N)ccc1-c1ccc(S(=O)(=O)N2CCCC2)cc1 [Example 10, 1-methyl-5-[4-(pyrrolidin-1-ylsulfonyl)phenyl]-1H-pyrrole-2-carbonitrile] | 146 | –
11 | Cn1c(C#N)ccc1-c1ccc(S(=O)(=O)N2CCCC2)c(C(F)(F)F)c1 [Example 26, 1-methyl-5-[4-(pyrrolidin-1-ylsulfonyl)-3-(trifluoromethyl)phenyl]-1H-pyrrole-2-carbonitrile] | 115 | –
12 | CCN(C)S(=O)(=O)c1ccc(-c2ccc(C#N)n2C)cc1 [Example 7, 4-(5-cyano-1-methyl-1H-pyrrol-2-yl)-N-ethyl-N-methylbenzenesulfonamide] | 66.1 | –
13 | Cn1c(C#N)ccc1-c1ccc(S(=O)(=O)NCC(F)(F)F)cc1 [Example 16, 4-(5-cyano-1-methyl-1H-pyrrol-2-yl)-N-(2,2,2-trifluoroethyl)benzenesulfonamide] | 40.8 | –

Continued, in another order:

Row | IC50 [1] [nM] | Compound | other results
14 | 18.1 | Cn1c(C#N)ccc1-c1ccc(S(=O)(=O)NC2CCC2)cc1F [Example 40, 4-(5-cyano-1-methyl-1H-pyrrol-2-yl)-N-cyclobutyl-3-fluorobenzenesulfonamide] | –
15 | 65.6 | CCN(CC)S(=O)(=O)c1ccc(-c2ccc(C#N)n2C)c(F)c1 [Example 34, 4-(5-cyano-1-methyl-1H-pyrrol-2-yl)-N,N-diethyl-3-fluorobenzenesulfonamide] | –
16 | 128 | CN(C)S(=O)(=O)c1ccc(-c2ccc(C#N)n2C)c(F)c1 [Example 32, 4-(5-cyano-1-methyl-1H-pyrrol-2-yl)-3-fluoro-N,N-dimethylbenzenesulfonamide] | –
17 | 8.5 | CNS(=O)(=O)c1ccc(-c2ccc(C#N)n2C)c(F)c1 [Example 31, 4-(5-cyano-1-methyl-1H-pyrrol-2-yl)-3-fluoro-N-methylbenzenesulfonamide] | –
18 | 71.7 | Cn1c(C#N)ccc1-c1ccc(S(=O)(=O)NC2CC2)c(OC(F)(F)F)c1 [Example 54, 4-(5-cyano-1-methyl-1H-pyrrol-2-yl)-N-cyclopropyl-2-(trifluoromethoxy)benzenesulfonamide] | –
19 | 26.8 | CC(C)NS(=O)(=O)c1ccc(-c2ccc(C#N)n2C)c(F)c1 [Example 35, 4-(5-cyano-1-methyl-1H-pyrrol-2-yl)-3-fluoro-N-isopropylbenzenesulfonamide] | –
20 | 25.9 | CN(C)c1cc(-c2ccc(C#N)n2C)ccc1S(=O)(=O)N(C)C [Example 58, 4-(5-cyano-1-methyl-1H-pyrrol-2-yl)-2-(dimethylamino)-N,N-dimethylbenzenesulfonamide] | –
21 | 101 | CCN(CC)S(=O)(=O)c1ccc(-c2ccc(C#N)n2C)cc1OC(F)(F)F [Example 50, 4-(5-cyano-1-methyl-1H-pyrrol-2-yl)-N,N-diethyl-2-(trifluoromethoxy)benzenesulfonamide] | –
22 | 48.1 | CC(C)NS(=O)(=O)c1ccc(-c2ccc(C#N)n2C)cc1F [Example 42, 4-(5-cyano-1-methyl-1H-pyrrol-2-yl)-2-fluoro-N-isopropylbenzenesulfonamide] | –
23 | 36.1 | CNS(=O)(=O)c1cc(F)c(-c2ccc(C#N)n2C)cc1F [Example 59, 4-(5-cyano-1-methyl-1H-pyrrol-2-yl)-2,5-difluoro-N-methylbenzenesulfonamide] | –
24 | 99.5 | Cn1c(C#N)ccc1-c1ccc(S(N)(=O)=O)cc1 [Example 63, 4-(5-cyano-1-methyl-1H-pyrrol-2-yl)benzenesulfonamide] | –
25 | 40.4 | Cn1c(C#N)ccc1-c1ccc(S(=O)(=O)NCC2CC2)cc1F [Example 39, 4-(5-cyano-1-methyl-1H-pyrrol-2-yl)-N-(cyclopropylmethyl)-3-fluorobenzenesulfonamide] | –
26 | 8.4 | CCCNS(=O)(=O)c1ccc(-c2ccc(C#N)n2C)cc1OC(F)(F)F [Example 52, 4-(5-cyano-1-methyl-1H-pyrrol-2-yl)-N-propyl-2-(trifluoromethoxy)benzenesulfonamide] | –
